Experimental data taken from article PMC3180450, “Structural Insights into the Mechanism of Protein O-Fucosylation” (PLoS ONE, 2011).
Where a chain is given by its changes, count along the chain named. Read-outs that look alike come from different tables or passages of the source.

Assays:
Assay type in all cases: binding
CePOFUT1 [1] = biological target: T1, CePOFUT1 (Caenorhabditis elegans, UniProt Q18014); test: isothermal titration calorimetry; details: read-out: K d (μM)GDP-fucose
T1 construct: gene pfut-1; codon-optimized synthetic gene in pPICZalphaA with KEX2 cleavage signal, secreted from Pichia pastoris X-33; monomer
T1 sequence (Q18014 26-382): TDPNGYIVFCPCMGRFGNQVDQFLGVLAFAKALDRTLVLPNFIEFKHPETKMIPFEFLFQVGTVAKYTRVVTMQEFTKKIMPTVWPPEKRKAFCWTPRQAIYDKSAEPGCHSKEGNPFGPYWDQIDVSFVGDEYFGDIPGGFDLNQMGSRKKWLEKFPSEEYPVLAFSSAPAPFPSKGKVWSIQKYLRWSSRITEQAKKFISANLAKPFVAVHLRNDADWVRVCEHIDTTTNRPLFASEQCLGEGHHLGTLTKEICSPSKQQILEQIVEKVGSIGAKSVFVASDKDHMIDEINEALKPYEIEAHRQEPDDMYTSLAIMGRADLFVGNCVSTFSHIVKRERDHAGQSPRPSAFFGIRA
From the text: (§1) isothermal titration calorimetry on CePOFUT1

CePOFUT1 [2] = biological target: T1, CePOFUT1; test: thermal shift assay (ANS fluorescence)
From the text: (§2) thermal shift assay (ANS fluorescence) on CePOFUT1

CePOFUT1 [3] = biological target: T2, CePOFUT1 (Caenorhabditis elegans, UniProt Q18014, F357A); test: isothermal titration calorimetry
T2 construct: gene pfut-1; codon-optimized synthetic gene in pPICZalphaA with KEX2 cleavage signal, secreted from Pichia pastoris X-33; monomer
T2 sequence (Q18014 26-382 F357A): T1 sequence (Q18014 26-382) with F332A
From the text: as §1

CePOFUT1 [4] = biological target: T3, CePOFUT1 (Caenorhabditis elegans, UniProt Q18014, R40A); test: isothermal titration calorimetry
T3 construct: gene pfut-1; codon-optimized synthetic gene in pPICZalphaA with KEX2 cleavage signal, secreted from Pichia pastoris X-33; monomer
T3 sequence (Q18014 26-382 R40A): T1 sequence (Q18014 26-382) with R15A
From the text: as §1

CePOFUT1 [5] = biological target: T4, CePOFUT1 (Caenorhabditis elegans, UniProt Q18014, R240K); test: isothermal titration calorimetry
T4 construct: gene pfut-1; codon-optimized synthetic gene in pPICZalphaA with KEX2 cleavage signal, secreted from Pichia pastoris X-33; monomer
T4 sequence (Q18014 26-382 R240K): T1 sequence (Q18014 26-382) with R215K
From the text: as §1

CePOFUT1 [6] = biological target: T5, CePOFUT1 (Caenorhabditis elegans, UniProt Q18014, F261A); test: isothermal titration calorimetry
T5 construct: gene pfut-1; codon-optimized synthetic gene in pPICZalphaA with KEX2 cleavage signal, secreted from Pichia pastoris X-33; monomer
T5 sequence (Q18014 26-382 F261A): T1 sequence (Q18014 26-382) with F236A
From the text: as §1

CePOFUT1 [7] = biological target: T6, CePOFUT1 (Caenorhabditis elegans, UniProt Q18014, D242A); test: isothermal titration calorimetry
T6 construct: gene pfut-1; codon-optimized synthetic gene in pPICZalphaA with KEX2 cleavage signal, secreted from Pichia pastoris X-33; monomer
T6 sequence (Q18014 26-382 D242A): T1 sequence (Q18014 26-382) with D217A
From the text: as §1

CePOFUT1 [8] = biological target: T7, CePOFUT1 (Caenorhabditis elegans, UniProt Q18014, F199A); test: isothermal titration calorimetry
T7 construct: gene pfut-1; codon-optimized synthetic gene in pPICZalphaA with KEX2 cleavage signal, secreted from Pichia pastoris X-33; monomer
T7 sequence (Q18014 26-382 F199A): T1 sequence (Q18014 26-382) with F174A
From the text: as §1

CePOFUT1 [9] = biological target: T8, CePOFUT1 (Caenorhabditis elegans, UniProt Q18014, W245A); test: isothermal titration calorimetry
T8 construct: gene pfut-1; codon-optimized synthetic gene in pPICZalphaA with KEX2 cleavage signal, secreted from Pichia pastoris X-33; monomer
T8 sequence (Q18014 26-382 W245A): T1 sequence (Q18014 26-382) with W220A
From the text: as §1

CePOFUT1 [10] = biological target: T9, CePOFUT1 (Caenorhabditis elegans, UniProt Q18014, N43A); test: isothermal titration calorimetry
T9 construct: gene pfut-1; codon-optimized synthetic gene in pPICZalphaA with KEX2 cleavage signal, secreted from Pichia pastoris X-33; monomer
T9 sequence (Q18014 26-382 N43A): T1 sequence (Q18014 26-382) with N18A
From the text: as §1

CePOFUT1 [11] = biological target: T10, CePOFUT1 (Caenorhabditis elegans, UniProt Q18014, D244A); test: isothermal titration calorimetry
T10 construct: gene pfut-1; codon-optimized synthetic gene in pPICZalphaA with KEX2 cleavage signal, secreted from Pichia pastoris X-33; monomer
T10 sequence (Q18014 26-382 D244A): T1 sequence (Q18014 26-382) with D219A
From the text: as §1

CePOFUT1 [12] = biological target: T11, CePOFUT1 (Caenorhabditis elegans, UniProt Q18014, D309N); test: thermal shift assay (ANS fluorescence); details: read-out: ΔT m (°C)1 mM GDP
T11 construct: gene pfut-1; codon-optimized synthetic gene in pPICZalphaA with KEX2 cleavage signal, secreted from Pichia pastoris X-33; monomer
T11 sequence (Q18014 26-382 D309N): T1 sequence (Q18014 26-382) with D284N
From the text: as §2

Row | SMILES | Kd (CePOFUT1 [1]) | ΔTm at 1000 µM (CePOFUT1 [2]; read-out: ΔT m (°C)1 mM GDP-fucose) | Kd (CePOFUT1 [3]) | Kd (CePOFUT1 [4]) | Kd (CePOFUT1 [5]) | Kd (CePOFUT1 [6]) | Kd (CePOFUT1 [7]) | Kd (CePOFUT1 [8]) | Kd (CePOFUT1 [9]) | Kd (CePOFUT1 [10]) | Kd (CePOFUT1 [11]) | ΔTm at 1000 µM (CePOFUT1 [2]; read-out: ΔT m (°C)1 mM GDP) | ΔTm at 1000 µM (CePOFUT1 [12])
1 | C[C@@H]1O[C@H](OP(=O)(O)OP(=O)(O)OC[C@H]2O[C@@H](n3cnc4c(=O)[nH]c(N)nc43)[C@H](O)[C@@H]2O)[C@@H](O)[C@H](O)[C@@H]1O [GDP-fucose] | 0.23 ± 0.04 µM | 2.19 °C |  |  |  |  |  |  |  |  |  |  | 
2 | Nc1nc2c(ncn2[C@@H]2O[C@H](COP(=O)(O)OP(=O)(O)O)[C@@H](O)[C@H]2O)c(=O)[nH]1 [GDP] |  |  | 26900 ± 5000 nM | 3100 ± 530 nM | 61200 ± 10500 nM | 120 ± 70 nM | 90 ± 20 nM | 180 ± 30 nM | 1600 ± 400 nM | 300 ± 90 nM | 100 ± 10 nM | 4.21 °C | 5.01 °C
